Tests used:
[1] = system: CD22; assay: Flow cytometry of surface protein expression, REH cell line stimulated with bryostatin-1; format: cell-based, human; conditions: REH (ALL) cells; bryostatin-1 0.001-1 nM, 24 or 72 hours; FIG. 1A
Excerpt: (§1) Bryostatin-1 has been examined in numerous tumor cell lines representing various hematological tumor types. Surface protein target expression was examined by flow cytometry with human cell lines stimulated with different concentrations of bryostatin-1. Human cell lines representative of different hematological disease indications of leukemia/lymphoma (Toledo, REH, DB), multiple myeloma (NCI-H929, U266B1, RPMI8226), and acute myeloid leukemia (Kasumi-1, AML-193, THP1) were used as target cell lines. Each cell line was treated with bryostatin-1 at 0.001, 0.01, 0.1, or 1 nM for either 24 hours or 72 hours in duplicate prior to measuring the surface molecule expression, quantitatively, of the following protein antigens by flow cytometry: CD19, CD20, CD22, CD33, CD37, CD38, CD123, CD269 (BCMA), and isotype control. Bryostatin-1 caused an upregulation of some antigens and not others.

[2] = system: CD123; assay: Flow cytometry of surface protein expression, AML193 cell line stimulated with bryostatin-1; format: cell-based, human; conditions: AML193 (AML) cells; bryostatin-1 0.001-1 nM, 24 or 72 hours; FIG. 1B
Excerpt: as §1

[3] = system: CD269 (BCMA); assay: Flow cytometry of surface protein expression, NCI-H929 cell line stimulated with bryostatin-1; format: cell-based, human; conditions: NCI-H929 (MM) cells; bryostatin-1 0.001-1 nM, 24 or 72 hours; FIG. 1C
Excerpt: as §1

[4] = system: CD19; assay: Surface antigen expression on primary B cells from healthy donors, MM or CLL patients; format: cell-based, human; conditions: 72 h exposure
Excerpt: (§2) The ability of bryostatin-1 at multiple concentrations to modulate the surface expression of multiple antigens (CD5, CD19, CD20, CD22, CD37, CD200/OX2 and CD269/BCMA) at two time points on primary B cells from healthy donors (2 donors) or patients with multiple myeloma (2 patients, MM) or chronic lymphocytic leukemia (4 patients, CLL) was investigated.

[5] = system: CD22; assay: as above; format: cell-based, human
Excerpt: as §2

[6] = system: CD5; assay: as above; format: cell-based, human; conditions: 24 h exposure
Excerpt: as §2

[7] = system: tumor cells derived from relapsed, low-expressing TAA patients; assay: PDX model with CD22-directed CAR-T and bryostatin-1; format: in vivo; conditions: bryostatin-1 administered on Day 45 after CD22-directed CAR-T cells on Day 42
[8] = primary B cells of CLL patients
[9] = primary B cells of healthy donors

For `CCC/C=C/C=C/C(=O)O[C@H]1/C(=C/C(=O)OC)C[C@H]2C[C@H]([C@@H](C)O)OC(=O)C[C@H](O)C[C@@H]3C[C@H](OC(C)=O)C(C)(C)[C@](O)(C[C@@H]4C/C(=C/C(=O)OC)C[C@H](/C=C/C(C)(C)[C@]1(O)O2)O4)O3` [bryostatin-1, Bryostatin-1], the “CD22 cell surface expression” value [1] was “upregulated”, the “CD123 cell surface expression” value [2] was “upregulated” and the “CD269 (BCMA) cell surface expression” value [3] was “upregulated”. The CD19 expression [4, 8] was “increases”, the CD19 expression ([4]; primary B cells of MM patients) was “not” and the CD19 expression [4, 9] was “increases”. For the same compound, the CD22 expression [5, 8] was “upregulated”, the CD22 expression ([5]; primary B cells of MM patients) was “not” and the CD22 expression [5, 9] was “upregulated”. The CD5 expression [6, 8] was “not”, the CD5 expression ([6]; primary B cells of MM patients) was “increases” and the CD5 expression [6, 9] was “not”. For the same compound, the Tumor response [7] was “induced the tumors to respond”.
